One series has as its system Target-A18. The experiment in a line: RNA annealing kinetics (molecular beacon with Target-A18), stopped-flow fluorescence. The series is classed as biochemical. The conditions noted are these: 50 nM molecular beacon, 100 nM Target-A18, 0–200 nM Hfq hexamer, 30 °C. Here is the method:
(§1) Figure 4. Shortening the CTD increases auto-inhibition by acidic residues. (A) Observed annealing rate constants for 100 nM target RNA and 50 nM molecular beacon with 0–200 nM Hfq hexamer at 30°C, measured by stopped-flow fluorescence. Black, Hfq102; red, Hfq-sCTD; cyan, Hfq65. (B) Fluorescence anisotropy assay for RNA binding and release. In stopped-flow FRET experiments, the dsRNA is released after pairing with its complementary strand ([Panja et al., 2013]; [Santiago-Frangos et al., 2016]). […] Remaining RNA was displaced from Hfq by excess ssDNA (400 nM DNA2). The averages and standard deviations for three trials are plotted for each Hfq variant. […] (D) Annealing of 5 nM ^32P-ChiX sRNA with 30 nM chiP mRNA without Hfq, or with Hfq65, Hfq102 or Hfq-sCTD, as indicated above each lane. Samples were loaded on a native polyacrylamide gel 60 min or 20 s after the components were mixed. […] (E) Fractions of free ChiX (black), ChiX·chiP dsRNA (light grey), ChiX·Hfq·chiP ternary complex (hatched) and ChiX·Hfq binary complex (dark grey) after 4 min of annealing, as analyzed by EMSA (Figure 4—figure supplement 2). […] Annealing of 100 nM Target RNA to 50 nM beacon RNA by Hfq variants was measured by stopped flow fluorescence at 30°C in 1 × TNK buffer. […] The change in fluorescence emission intensity was normalized to the maximum fluorescence within an experiment. […]

Another series concerns D16-FAM·R16. The series is described as follows: anisotropy time-course of D16-FAM·R16 binding, annealing and release. The series is classed as biochemical. The conditions noted are these: 50 nM D16-FAM, 50 nM Hfq hexamer, then 50 nM R16, TNK buffer, 30 °C, three trials. Here is the method: as §1
Series [1] in a line: SDS-PAGE oligomerization of purified Hfq variants. The series is classed as physicochemical, E. coli. The settings on record: 4–20% SDS-PAGE, ~2.8 µg protein, 2% SDS, boiled. Here is the method:
Figure 2. CTD and RNA occupy the same rim binding site. […] The CTD linker is shown in purple, the acidic tip in red and the N-terminal FITC as a yellow star. Hfq core is shown in cyan, with basic rim patches in dark blue. […] (C) Reaction scheme for annealing an RNA molecular beacon to a target RNA (open bar) ([Hopkins et al., 2011]; [Panja et al., 2015]). (D) Progress curves for annealing 50 nM molecular beacon and 100 nM Target by 50 nM Hfq65 hexamer at 30°C, measured by stopped-flow fluorescence. See Figure 2—figure supplement 3 for further data. (E) Contribution of core residues to CTD binding. Interaction energy (Expected Energetic Contribution; EEC) in silico for a core residue in the Rosetta models (solid symbols and solid line; adjusted R^2 = 0.77) or the average annealing rates for Target and Target-A18 relative to Hfq65 (open symbols and dashed line; adjusted R^2 = 0.94) versus experimental CTD binding energy (∆∆G°) for each Hfq65 variant. The binding energy, ∆∆G° = –RTln(Kd^MUT/Kd), reflects the perturbation to CTD binding by a mutation in Hfq65. The interaction energy in silico or EEC is defined as the average energy of a tail–core interaction multiplied by the average number of tail–core interactions per model (Figure 1B, top and Equation 3). The relative annealing rate for Hfq65 variants, krel = kobs^MUT/kobs^WT, is <1 if the mutated residue is important for RNA annealing. Figure 2—figure supplement 1. SDS-PAGE of purified Hfq variants. WT Hfq assembles into hexamers and dodecamers that are stable to SDS-PAGE, which can be used to evaluate the oligomerization of Hfq variants. Purified Hfq protein (~2.8 µg) was separated on a 4–20% SDS-PAGE gel and stained with Coomassie blue (lanes 2–6). Samples were prepared in 2% SDS and boiled before loading. Lane 1, Protein standards (10 µL All Blue Precision Plus, […]). […] Annealing of 100 nM Target RNA to 50 nM beacon RNA by Hfq65 and Hfq65 variants was measured by stopped flow fluorescence at 30°C in 1 × TNK buffer. […] The change in fluorescence emission intensity was normalized to the maximum fluorescence within an experiment. […]

In the case of “Hfq65: truncated E. coli Hfq variant lacking the CTD”, the “annealing acceleration for Target-A18 compared to no Hfq” value in the series on Target-A18 is reported as “roughly 100 fold”. Also, the “release of annealed dsRNA (D16-FAM·R16) from Hfq” value in the series with D16-FAM·R16 was “a large proportion of the dsRNA remained bound to Hfq65”. For the same substance, the “oligomeric state on SDS-PAGE” value in series [1] is listed as “form hexamers with slightly different stabilities”.
Hfq102: full-length E. coli Hfq: in the series on Target-A18, the “annealing acceleration for Target-A18 compared to no Hfq” value is given as “roughly 100 fold”. Besides, the “release of annealed dsRNA (D16-FAM·R16) from Hfq” value in the series on D16-FAM·R16 is listed as “most of the annealed dsRNA dissociated from Hfq102”. Further, the “oligomeric state on SDS-PAGE” value in series [1] was “migrates as a dodecamer (red dot) and monomer (green dot) with no visible hexamer band”.

The values above are taken from article PMC5606850, “Acidic C-terminal domains autoregulate the RNA chaperone Hfq” (eLife, 2017).
